Results reported in ChEMBL document CHEMBL1144817, “Mirabalin, [corrected] an antitumor macrolide lactam from the marine sponge Siliquariaspongia mirabilis” (J Nat Prod, 2008).
Calls of active or inactive are those of the source. The calls are words filed in the database; no cut-off is given here.

Tests used:
HCT-116 = test: Antitumor activity against human HCT116 cells; type: functional, cell-based
Candida albicans = test: Antimicrobial activity against Candida albicans; type: functional, organism-based
[1] = Antiproliferative activity against green monkey kidney cells; type: cell-based; settings: chlorocebus aethiops

## CO[C@@H]1[C@@H]2O[C@H](C[C@@H](O)[C@H](C)[C@@H](O)/C(C)=C/[C@H](C)[C@H](O)/C=C/CC(O)CC(C(NC(=O)CC(C)CCC(C)C(O)/C(C)=C/C(C)[C@@H](O)[C@H](NC(=O)/C=C/C(C)(C)C(=O)[C@@H](C)[C@@H](O)C(C)C)[C@@H](O)C(C)C)C(C)O)OC(=O)C(C(O)C(=O)O)NC(=O)/C=C/C=C/C=C/C=C/C=C/[C@H]2OC)C[C@@H]1C (stereo partly drawn) [MIRABILIN MACROLIDE LACTUM]
HCT-116
  IC50: 270 nM
Candida albicans
  Activity: inactive
[1]
  Activity: Not Active
